In brackets after ≈: the same amount, converted by molar mass. Several values for one entry are separate records, joined by “and”; a condition that tells them apart may be missing. Identical values can stand only once. Like-named read-outs stand apart in the source and are kept apart here.
How the values were obtained:
[1] = tested on: Serratia morganii (ATCC- 31665); assay: MIC, micro dilution method; type: cell-based; details: ATCC31665
Description: (§1) The disk diffusion method was used for the preliminary antibacterial evaluation of 1-pyridylimidazo[1,5-a]pyridine derivatives. The MIC50 of these derivatives, showing inhibition in the preliminary tests, were further determined by the microtitre plate technique using micro dilution method. In brief, the bacterial strains (S. aureus, P. vulgaris, Group D Streptococci, Bacillus sp., E. coli, P. aeruginosa and S. morganii)) were grown and diluted to 2×10^5 colony-forming units (CFU)/ml in sodium phosphate buffer (SPB) containing 0.03% Luria–Bertani (LB) broth. The synthesized derivatives were dissolved in DMSO and their serial dilution was performed in 50 µL of LB medium in 96-well microtitre plate to achieve the required concentrations (0.1–10 µg/ml) with bacterial inoculums (5×10^4 CFU per well). DMSO was taken as negative control and Ceftriaxone and clotrimazole were taken as positive control. After incubation at 37°C overnight, the MICs were taken as the lowest inhibitor concentration at which the bacterial growth was inhibited. The average of three values was calculated and that was the MIC for the test material and bacterial strain.
(§2) For the agar plate count method, 25 µL aliquots of bacteria at 1×10^5 CFU/ml in SPB containing 0.03% LB broth were incubated with 25 µL of diluted compounds for 2 h at 37°C. The mixtures of bacteria and compounds were serially diluted 10-fold with SPB and plated on LB plates that were incubated at 37°C overnight. Bacterial colonies were enumerated the following day.

[2] = tested on: Group D Streptococci (ATCC-12959); assay: MIC, micro dilution method; type: cell-based
Description: as §1, §2

[3] = tested on: Staphylococcus aureus (ATCC-25923); assay: MBC, sub cultivation from MIC plate; type: cell-based; details: ATCC25923, S. aureus
Description: (§3) After having determined the MICs, bacterial strains from the wells of the microtitre plate with no visible bacterial growth were removed for serial sub cultivation of 2 µl into another new microtitre plate containing 100 µl of broth per well and further incubated for 24 h. The lowest concentration with no visible growth was defined as MBC [28], indicating 99.5% killing of the original inoculum. The absorbance of each well was measured at a wavelength of 620 nm by Microplate Manager 4.0 (Bio-Rad laboratories) and compared with a blank. Solvent (DMSO) was used as a negative control. Three replicates were done for each compound and experiment was repeated two times.

[4] = tested on: Proteus vulgaris (ATCC-29905); assay: MBC, sub cultivation from MIC plate; type: cell-based; details: ATCC29905, P. vulgaris
Description: as §3

[5] = tested on: Serratia morganii (ATCC- 31665); assay: MBC, sub cultivation from MIC plate; type: cell-based
Description: as §3

[6] = tested on: Bacillus spp. (ATCC-14593); assay: MBC, sub cultivation from MIC plate; type: cell-based; details: ATCC14593, Bacillus sp.
Description: as §3

[7] = tested on: Pseudomonas aeruginosa (ATCC-27853); assay: MBC, sub cultivation from MIC plate; type: cell-based
Description: as §3

[8] = tested on: Escherichia coli (ATCC-25922); assay: MBC, sub cultivation from MIC plate; type: cell-based; details: ATCC25922, E. coli
Description: as §3

[9] = tested on: Group D Streptococci (ATCC-12959); assay: MBC, sub cultivation from MIC plate; type: cell-based
Description: as §3

[10] = target: T1, papain (Carica papaya, UniProt P00784); assay: Cysteine protease inhibitory activity, papain with Bz-DL-Arg-pNA substrate; type: biochemical
T1 construct: To solutions of active papain (final concentration: 0.05 mM); purchased Sigma Chemical Co., St. Louis, MO, USA
T1 sequence (P00784 134-345): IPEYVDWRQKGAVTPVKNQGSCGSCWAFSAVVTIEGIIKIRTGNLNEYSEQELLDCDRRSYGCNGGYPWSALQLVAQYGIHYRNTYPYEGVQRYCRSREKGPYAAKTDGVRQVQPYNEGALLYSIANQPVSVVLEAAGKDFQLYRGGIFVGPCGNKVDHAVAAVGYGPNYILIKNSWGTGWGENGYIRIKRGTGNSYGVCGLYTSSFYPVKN
Description: The capacity of the 1-pyridylimidazo[1,5-a]pyridine derivatives to inhibit cysteine proteases was tested using papain as the model enzyme. The proteolytic activity of the reaction mixtures was determined using Bz-DL-Arg-pNA as the chromogenic substrate. To solutions of active papain (final concentration: 0.05 mM) were added concentrated solutions of the different derivatives to final concentrations of 0.2 mM. […] The same procedure was used at 32°C and 42°C for thermodynamics studies. The kinetic parameters for the substrate hydrolysis were determined by measuring the initial rate of enzymatic activity. The inhibition constant Ki was determined by Dixon method and also by the Lineweaver–Burk equation. The Km value was calculated from the double-reciprocal equation by fitting the data into the computer software Origin 6.1. The Lineweaver–Burk plot was used to determine the types of inhibition. For the kinetic analysis and rate constant determinations, the assays were carried out in triplicate, and the average value was considered throughout this work.

[11] = target: T1, papain; assay: Thermodynamics analysis of papain inhibition (Van't Hoff); type: biochemical; details: Value at 37°C
Description: Free energy changes of inhibition of papain against 1- substituted pyridylimidazo[1,5-a] pyridine derivatives (ΔG) were determined by the equation, [drawing 1] (1)
Temperature dependence of the inhibition constants was used to determine the thermodynamic parameters. Changes in enthalpy (ΔH) were determined from the Van’t Hoff plots by using the equation, [drawing 2] (2)
Where ΔH is enthalpy change, R is gas constant, ΔS is entropy change and T is the absolute temperature. The entropy change was obtained from the equation, [drawing 3] (3)

[12] = tested on: Staphylococcus aureus (ATCC-25923); assay: MIC, micro dilution method; type: cell-based; details: ATCC25923, S. aureus
Description: as §1, with “strain. […]” for “strain.”

[13] = tested on: Proteus vulgaris (ATCC-29905); assay: MIC, micro dilution method; type: cell-based; details: ATCC29905, P. vulgaris
Description: as §1, with “strain. […]” for “strain.”

[14] = tested on: Bacillus spp. (ATCC-14593); assay: MIC, micro dilution method; type: cell-based; details: ATCC14593; Bacillus sp.
Description: as §1, with “strain. […]” for “strain.”

[15] = tested on: Pseudomonas aeruginosa (ATCC-27853); assay: MIC, micro dilution method; type: cell-based; details: ATCC27853
Description: as §1, with “strain. […]” for “strain.”

[16] = tested on: Escherichia coli (ATCC-25922); assay: MIC, micro dilution method; type: cell-based; details: ATCC25922, E. coli
Description: as §1, with “strain. […]” for “strain.”

[17] = tested on: Bacillus spp. (ATCC-14593); assay: MIC, micro dilution method; type: cell-based; details: ATCC14593; Bacillus sp.; remark: listed apart in the source

Oc1ccccc1-c1nc(-c2ccccn2)c2ccccn12 [Compound 3a, 1-(2-pyridyl)-3-(2-hydroxyphenyl) imidazo[1,5-a]pyridine]
MIC50 [1]: 0.8 mg/L (≈ 2.78 µM)
MIC90 [1]: 1.5 mg/L (≈ 5.22 µM)
MIC50 [2]: 0.7 mg/L (≈ 2.44 µM)
MIC90 [2]: 1.3 mg/L (≈ 4.52 µM)
MBC ([3]; read-out: MBC50): 1.8 mg/L (≈ 6.26 µM)
MBC ([3]; read-out: MBC90): 3.5 mg/L (≈ 12.2 µM)
MBC ([4]; read-out: MBC50): 1.6 mg/L (≈ 5.57 µM)
MBC ([4]; read-out: MBC90): 3.1 mg/L (≈ 10.8 µM)
MBC ([5]; ATCC31665, read-out: MBC50): 1.6 mg/L (≈ 5.57 µM)
MBC ([5]; ATCC31665, read-out: MBC90): 3.1 mg/L (≈ 10.8 µM)
MBC ([6]; read-out: MBC50): 1.2 mg/L (≈ 4.18 µM)
MBC ([6]; read-out: MBC90): 2.3 mg/L (≈ 8 µM)
MBC ([7]; ATCC27853, read-out: MBC50): 1.1 mg/L (≈ 3.83 µM)
MBC ([7]; ATCC27853, read-out: MBC90): 1.9 mg/L (≈ 6.61 µM)
MBC ([8]; read-out: MBC50): 1.3 mg/L (≈ 4.52 µM)
MBC ([8]; read-out: MBC90): 2.1 mg/L (≈ 7.31 µM)
MBC ([9]; read-out: MBC50): 1.3 mg/L (≈ 4.52 µM)
MBC ([9]; read-out: MBC90): 2.5 mg/L (≈ 8.7 µM)
Ki ([10]; 32°C): 14.3 µM
Ki ([10]; 37°C): 13.7 µM
Ki ([10]; 42°C): 11.1 µM
Type of inhibition ([10]; Lineweaver–Burk plot): Non- Competitive
IC50 ([10]; papain): 13.4 µM
ΔG (free energy of binding) [11]: −6.86 Kcalmol^−1 and −6.86(±0.30) Kcalmol^−1
ΔS (entropy change) [11]: 72.92 (±2.33) Jmol-K^−1
ΔH (enthalpy change) ([11]; Van't Hoff plot): −6.2(±0.88) KJmol^−1
MIC50 [12]: 0.9 mg/L (≈ 3.13 µM)
MIC90 [12]: 1.7 mg/L (≈ 5.92 µM)
MIC50 [13]: 0.8 mg/L (≈ 2.78 µM)
MIC90 [13]: 1.6 mg/L (≈ 5.57 µM)
MIC50 [14]: 0.6 mg/L (≈ 2.09 µM)
MIC50 [15]: 0.6 mg/L (≈ 2.09 µM)
MIC90 [15]: 1.09 mg/L (≈ 3.79 µM)
MIC50 [16]: 0.6 mg/L (≈ 2.09 µM)
MIC90 [16]: 0.99 mg/L (≈ 3.45 µM)
MIC90 [17]: 1.2 mg/L (≈ 4.18 µM)
